# System: ES-2
# Test: Antiproliferative activity against human ES2 cells assessed as cell growth inhibition incubated for 72 hrs by Celltiter-Glo assay
# Format: functional, cell-based
# Conditions: ES-2, 72 h
row,Compound,IC50 [nM]
1,CCOc1cc2ncc(C#N)c(Nc3ccc(OCc4ccccn4)c(Cl)c3)c2cc1NC(=O)/C=C/CN(C)C [NERATINIB],788
2,CCOc1cc2ncc(C#N)c(Nc3ccc(OCc4ccccn4)c(Cl)c3)c2cc1NC(=O)/C=C/[C@H]1CCCN1C [PYROTINIB],778

# Target: Epidermal growth factor receptor (Homo sapiens, UniProt P00533)
# Test: Inhibition of EGFR (unknown origin)
# Conditions: not given
row,IC50 [nM],Compound
1,449,Cc1cc(Nc2ncnc3ccc(NC4=NC(C)(C)CO4)cc23)ccc1Oc1ccn2ncnc2c1 [TUCATINIB]

# System: NCI-H441
# Test: Antiproliferative activity against human NCI-H441 cells assessed as cell growth inhibition incubated for 72 hrs by Celltiter-Glo assay
# Format: functional, cell-based
# Conditions: NCI-H441, 72 h
row,IC50 [nM],Compound
1,1280,CCOc1cc2ncc(C#N)c(Nc3ccc(OCc4ccccn4)c(Cl)c3)c2cc1NC(=O)/C=C/CN(C)C [NERATINIB]
2,1890,CCOc1cc2ncc(C#N)c(Nc3ccc(OCc4ccccn4)c(Cl)c3)c2cc1NC(=O)/C=C/[C@H]1CCCN1C [PYROTINIB]

# System: BT-474
# Test: Antiproliferative activity against human BT-474 cells assessed as inhibition of cell growth incubated for 72 hrs by Celltiter-Glo assay
# Format: functional, cell-based
# Conditions: BT-474, 72 h
row,IC50 [nM],Compound
1,2.06,CCOc1cc2ncc(C#N)c(Nc3ccc(OCc4ccccn4)c(Cl)c3)c2cc1NC(=O)/C=C/CN(C)C [NERATINIB]
2,3.97,CCOc1cc2ncc(C#N)c(Nc3ccc(OCc4ccccn4)c(Cl)c3)c2cc1NC(=O)/C=C/[C@H]1CCCN1C [PYROTINIB]

# System: NCI-N87
# Test: Antiproliferative activity against human NCI-N87 cells assessed as inhibition of cell growth incubated for 72 hrs by Celltiter-Glo assay
# Format: functional, cell-based
# Conditions: NCI-N87, 72 h
row,Compound,IC50 [nM]
1,CCOc1cc2ncc(C#N)c(Nc3ccc(OCc4ccccn4)c(Cl)c3)c2cc1NC(=O)/C=C/CN(C)C [NERATINIB],0.64
2,CCOc1cc2ncc(C#N)c(Nc3ccc(OCc4ccccn4)c(Cl)c3)c2cc1NC(=O)/C=C/[C@H]1CCCN1C [PYROTINIB],0.85

# System: COLO-678
# Test: Antiproliferative activity against human COLO-678 cells assessed as cell growth inhibition incubated for 72 hrs by Celltiter-Glo assay
# Format: functional, cell-based
# Conditions: COLO-678, 72 h
row,IC50 [nM],Compound
1,694,CCOc1cc2ncc(C#N)c(Nc3ccc(OCc4ccccn4)c(Cl)c3)c2cc1NC(=O)/C=C/CN(C)C [NERATINIB]
2,1840,CCOc1cc2ncc(C#N)c(Nc3ccc(OCc4ccccn4)c(Cl)c3)c2cc1NC(=O)/C=C/[C@H]1CCCN1C [PYROTINIB]

# System: BT-474
# Test: Antitumor activity against human BT-474 cells xenografted in BALB/c nude mouse assessed as tumor growth inhibition at 20 mg/kg/day, po administered once daily for 21 days relative to control
# Format: functional
# Conditions: BT-474, 504 h, time 21 day, read-out: TGI
row,Compound,inhibition in vivo at 20 mg/kg/day [%]
1,CCOc1cc2ncc(C#N)c(Nc3ccc(OCc4ccccn4)c(Cl)c3)c2cc1NC(=O)/C=C/CN(C)C [NERATINIB],119
2,CCOc1cc2ncc(C#N)c(Nc3ccc(OCc4ccccn4)c(Cl)c3)c2cc1NC(=O)/C=C/[C@H]1CCCN1C [PYROTINIB],118

# System: NCI-N87
# Test: Antitumor activity against human NCI-N87 cells xenografted in BALB/c nude mouse assessed as tumor growth inhibition at 20 mg/kg/day, po administered once daily for 21 days relative to control
# Format: functional
# Conditions: NCI-N87, 504 h, time 21 day, read-out: TGI
row,Compound,inhibition in vivo at 20 mg/kg/day [%]
1,CCOc1cc2ncc(C#N)c(Nc3ccc(OCc4ccccn4)c(Cl)c3)c2cc1NC(=O)/C=C/CN(C)C [NERATINIB],112
2,CCOc1cc2ncc(C#N)c(Nc3ccc(OCc4ccccn4)c(Cl)c3)c2cc1NC(=O)/C=C/[C@H]1CCCN1C [PYROTINIB],113

# System: SK-BR-3
# Test: Antiproliferative activity against human SK-BR-3 cells overexpressing wild type HER2 assessed as cell growth inhibition incubated for 72 hrs by Celltiter-Glo assay
# Format: functional, cell-based
# Conditions: SK-BR-3, 72 h
row,IC50 [nM],Compound
1,10.3,CCOc1cc2ncc(C#N)c(Nc3ccc(OCc4ccccn4)c(Cl)c3)c2cc1NC(=O)/C=C/CN(C)C [NERATINIB]
2,14,CCOc1cc2ncc(C#N)c(Nc3ccc(OCc4ccccn4)c(Cl)c3)c2cc1NC(=O)/C=C/[C@H]1CCCN1C [PYROTINIB]

# Target: Receptor tyrosine-protein kinase erbB-2 (Homo sapiens, UniProt P04626, V777L)
# Test: Inhibition of HER2 V777L mutant (unknown origin) incubated for 120 mins in presence of 33P-ATP by P81 ion exchange cellulose chromatography
# Conditions: not given
# Sequence of Receptor tyrosine-protein kinase erbB-2 (Homo sapiens, UniProt P04626, V777L) (P04626 23-1255 V777L limits assumed): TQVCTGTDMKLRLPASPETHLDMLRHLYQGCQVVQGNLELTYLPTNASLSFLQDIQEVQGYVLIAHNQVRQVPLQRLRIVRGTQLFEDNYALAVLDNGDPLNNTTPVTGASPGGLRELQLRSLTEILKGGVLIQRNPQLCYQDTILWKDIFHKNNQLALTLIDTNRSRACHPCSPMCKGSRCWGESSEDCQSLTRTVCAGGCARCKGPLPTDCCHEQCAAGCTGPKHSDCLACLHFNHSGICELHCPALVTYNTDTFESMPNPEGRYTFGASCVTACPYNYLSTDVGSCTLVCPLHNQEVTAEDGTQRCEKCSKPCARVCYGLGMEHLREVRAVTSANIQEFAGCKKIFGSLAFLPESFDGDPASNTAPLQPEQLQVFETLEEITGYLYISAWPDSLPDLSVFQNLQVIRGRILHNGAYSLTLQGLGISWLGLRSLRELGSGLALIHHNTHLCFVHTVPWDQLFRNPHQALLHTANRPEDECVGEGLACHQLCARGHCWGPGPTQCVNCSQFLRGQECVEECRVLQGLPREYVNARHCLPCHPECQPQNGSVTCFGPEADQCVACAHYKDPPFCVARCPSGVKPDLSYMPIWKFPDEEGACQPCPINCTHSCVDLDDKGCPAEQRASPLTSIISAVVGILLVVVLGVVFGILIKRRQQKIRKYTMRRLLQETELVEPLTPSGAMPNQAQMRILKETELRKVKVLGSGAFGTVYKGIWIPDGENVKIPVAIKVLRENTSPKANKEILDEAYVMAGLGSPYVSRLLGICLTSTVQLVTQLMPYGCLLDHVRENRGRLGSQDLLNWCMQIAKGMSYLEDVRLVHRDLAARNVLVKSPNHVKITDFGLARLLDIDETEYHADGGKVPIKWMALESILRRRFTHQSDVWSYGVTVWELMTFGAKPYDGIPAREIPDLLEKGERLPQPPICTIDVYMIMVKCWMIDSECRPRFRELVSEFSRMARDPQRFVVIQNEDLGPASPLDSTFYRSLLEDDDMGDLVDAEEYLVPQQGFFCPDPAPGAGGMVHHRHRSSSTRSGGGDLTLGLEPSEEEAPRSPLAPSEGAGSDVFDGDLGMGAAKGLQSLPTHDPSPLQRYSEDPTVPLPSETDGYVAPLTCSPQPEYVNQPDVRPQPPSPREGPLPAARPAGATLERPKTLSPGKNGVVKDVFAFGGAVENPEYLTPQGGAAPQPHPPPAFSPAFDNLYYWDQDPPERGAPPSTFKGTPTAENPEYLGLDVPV
row,IC50 [nM],Compound
1,3.91,CCOc1cc2ncc(C#N)c(Nc3ccc(OCc4ccccn4)c(Cl)c3)c2cc1NC(=O)/C=C/[C@H]1CCCN1C [PYROTINIB]

# System: NUGC-4
# Test: Antiproliferative activity against human NUGC-4 cells assessed as cell growth inhibition incubated for 72 hrs by Celltiter-Glo assay
# Format: functional, cell-based
# Conditions: NUGC-4, 72 h
row,Compound,IC50 [nM]
1,CCOc1cc2ncc(C#N)c(Nc3ccc(OCc4ccccn4)c(Cl)c3)c2cc1NC(=O)/C=C/CN(C)C [NERATINIB],38.1
2,CCOc1cc2ncc(C#N)c(Nc3ccc(OCc4ccccn4)c(Cl)c3)c2cc1NC(=O)/C=C/[C@H]1CCCN1C [PYROTINIB],60.8

# System: BaF3
# Test: Antitumor activity against mouse BaF3 cells harbouring HER2 A775_G776insYVMA mutant xenografted in BALB/c nude mouse assessed as tumor growth inhibition at 20 mg/kg, po qd measured for 13 days relative to control
# Format: functional
# Conditions: BaF3, 312 h, time 13 day, read-out: TGI
row,Compound,inhibition in vivo at 20 mg/kg [%]
1,CCOc1cc2ncc(C#N)c(Nc3ccc(OCc4ccccn4)c(Cl)c3)c2cc1NC(=O)/C=C/CN(C)C [NERATINIB],56
2,CCOc1cc2ncc(C#N)c(Nc3ccc(OCc4ccccn4)c(Cl)c3)c2cc1NC(=O)/C=C/[C@H]1CCCN1C [PYROTINIB],55

# Target: T1, Receptor tyrosine-protein kinase erbB-2 (Homo sapiens, UniProt P04626)
# Test: Inhibition of wild type human GST-tagged HER2 (676 to end residues) expressed in baculovirus infected Sf9 cells incubated for 30 mins in presence of ATP by HTRF analysis
# Conditions: not given
# T1 sequence (P04626 whole entry): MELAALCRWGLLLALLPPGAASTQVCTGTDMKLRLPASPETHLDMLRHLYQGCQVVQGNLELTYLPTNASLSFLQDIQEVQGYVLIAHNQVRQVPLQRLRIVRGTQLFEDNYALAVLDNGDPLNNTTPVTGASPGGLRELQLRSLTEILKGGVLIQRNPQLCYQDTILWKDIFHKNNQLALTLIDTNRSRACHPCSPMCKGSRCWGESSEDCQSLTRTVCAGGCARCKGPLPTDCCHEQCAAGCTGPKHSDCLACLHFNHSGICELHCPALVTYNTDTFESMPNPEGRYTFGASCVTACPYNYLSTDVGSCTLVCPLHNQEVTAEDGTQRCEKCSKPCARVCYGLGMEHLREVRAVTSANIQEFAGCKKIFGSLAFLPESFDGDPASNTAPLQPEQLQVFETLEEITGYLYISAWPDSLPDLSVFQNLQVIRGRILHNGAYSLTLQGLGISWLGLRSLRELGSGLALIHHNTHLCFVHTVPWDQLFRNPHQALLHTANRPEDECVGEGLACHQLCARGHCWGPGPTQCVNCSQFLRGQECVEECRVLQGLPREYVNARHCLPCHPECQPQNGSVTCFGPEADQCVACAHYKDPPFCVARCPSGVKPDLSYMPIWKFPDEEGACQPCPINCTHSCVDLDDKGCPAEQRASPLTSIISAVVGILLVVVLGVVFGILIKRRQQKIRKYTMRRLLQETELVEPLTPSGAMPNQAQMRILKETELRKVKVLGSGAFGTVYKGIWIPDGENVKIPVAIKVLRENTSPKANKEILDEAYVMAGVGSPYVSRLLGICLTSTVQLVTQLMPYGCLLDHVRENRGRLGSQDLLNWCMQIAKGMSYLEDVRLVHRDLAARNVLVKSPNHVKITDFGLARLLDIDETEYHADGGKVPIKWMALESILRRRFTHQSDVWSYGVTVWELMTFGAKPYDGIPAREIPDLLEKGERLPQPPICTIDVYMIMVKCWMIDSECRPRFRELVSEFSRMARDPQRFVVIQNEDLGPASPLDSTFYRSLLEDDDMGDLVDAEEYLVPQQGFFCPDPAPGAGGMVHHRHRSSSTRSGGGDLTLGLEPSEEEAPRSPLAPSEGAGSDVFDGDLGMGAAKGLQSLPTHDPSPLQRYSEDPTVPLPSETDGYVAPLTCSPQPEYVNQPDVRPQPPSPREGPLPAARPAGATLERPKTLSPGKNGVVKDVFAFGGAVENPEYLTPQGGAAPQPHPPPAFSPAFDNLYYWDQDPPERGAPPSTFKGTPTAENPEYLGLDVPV
row,IC50 [nM],Compound
1,9.07,CCOc1cc2ncc(C#N)c(Nc3ccc(OCc4ccccn4)c(Cl)c3)c2cc1NC(=O)/C=C/[C@H]1CCCN1C [PYROTINIB]

# System: not listed separately
# Test: Antiproliferative activity against human KM12-Luc cells assessed as cell growth inhibition incubated for 72 hrs by Celltiter-Glo assay
# Format: functional, cell-based
# Conditions: not given
row,Compound,IC50 [nM]
1,CCOc1cc2ncc(C#N)c(Nc3ccc(OCc4ccccn4)c(Cl)c3)c2cc1NC(=O)/C=C/CN(C)C [NERATINIB],1730
2,CCOc1cc2ncc(C#N)c(Nc3ccc(OCc4ccccn4)c(Cl)c3)c2cc1NC(=O)/C=C/[C@H]1CCCN1C [PYROTINIB],1690

# Target: Receptor tyrosine-protein kinase erbB-2 (Homo sapiens, UniProt P04626, R896C)
# Test: Inhibition of HER2 R896C mutant (unknown origin) incubated for 120 mins in presence of 33P-ATP by P81 ion exchange cellulose chromatography
# Conditions: not given
# Sequence of Receptor tyrosine-protein kinase erbB-2 (Homo sapiens, UniProt P04626, R896C) (P04626 23-1255 R896C limits assumed): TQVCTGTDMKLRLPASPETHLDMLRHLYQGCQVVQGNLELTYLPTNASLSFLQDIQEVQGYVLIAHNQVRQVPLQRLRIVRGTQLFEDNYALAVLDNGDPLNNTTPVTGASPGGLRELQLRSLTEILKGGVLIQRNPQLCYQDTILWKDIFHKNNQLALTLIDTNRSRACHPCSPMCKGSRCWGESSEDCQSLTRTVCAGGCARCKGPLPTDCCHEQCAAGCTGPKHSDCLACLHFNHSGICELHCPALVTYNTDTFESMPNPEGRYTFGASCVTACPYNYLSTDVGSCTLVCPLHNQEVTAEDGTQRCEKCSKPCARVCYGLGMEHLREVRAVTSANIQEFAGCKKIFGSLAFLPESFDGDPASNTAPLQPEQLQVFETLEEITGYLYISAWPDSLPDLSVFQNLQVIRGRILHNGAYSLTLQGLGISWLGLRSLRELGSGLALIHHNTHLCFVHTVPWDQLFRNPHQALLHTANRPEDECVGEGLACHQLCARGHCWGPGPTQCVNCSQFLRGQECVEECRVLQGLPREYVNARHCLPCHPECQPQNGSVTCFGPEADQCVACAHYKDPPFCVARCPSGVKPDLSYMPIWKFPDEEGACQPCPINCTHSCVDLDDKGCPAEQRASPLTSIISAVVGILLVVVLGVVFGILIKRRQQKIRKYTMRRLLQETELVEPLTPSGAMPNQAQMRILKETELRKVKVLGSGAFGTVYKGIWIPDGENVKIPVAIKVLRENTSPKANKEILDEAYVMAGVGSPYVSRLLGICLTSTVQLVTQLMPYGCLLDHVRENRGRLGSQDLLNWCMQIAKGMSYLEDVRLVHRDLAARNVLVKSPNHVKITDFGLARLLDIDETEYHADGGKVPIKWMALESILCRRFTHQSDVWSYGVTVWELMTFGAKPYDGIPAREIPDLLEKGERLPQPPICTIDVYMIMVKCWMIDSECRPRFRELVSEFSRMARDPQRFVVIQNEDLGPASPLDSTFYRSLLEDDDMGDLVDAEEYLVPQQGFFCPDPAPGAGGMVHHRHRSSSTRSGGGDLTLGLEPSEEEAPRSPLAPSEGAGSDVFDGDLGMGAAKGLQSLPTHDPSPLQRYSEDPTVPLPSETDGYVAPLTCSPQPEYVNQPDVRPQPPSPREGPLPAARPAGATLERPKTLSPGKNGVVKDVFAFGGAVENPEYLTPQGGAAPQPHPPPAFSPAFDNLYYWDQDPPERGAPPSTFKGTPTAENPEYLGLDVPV
row,IC50 [nM],Compound
1,2.4,CCOc1cc2ncc(C#N)c(Nc3ccc(OCc4ccccn4)c(Cl)c3)c2cc1NC(=O)/C=C/[C@H]1CCCN1C [PYROTINIB]

# Target: Receptor tyrosine-protein kinase erbB-2 (Homo sapiens, UniProt P04626, D769Y)
# Test: Inhibition of HER2 D769Y mutant (unknown origin) incubated for 120 mins in presence of 33P-ATP by P81 ion exchange cellulose chromatography
# Conditions: not given
row,IC50 [nM],Compound
1,57.4,CCOc1cc2ncc(C#N)c(Nc3ccc(OCc4ccccn4)c(Cl)c3)c2cc1NC(=O)/C=C/[C@H]1CCCN1C [PYROTINIB]

# System: MDA-MB-468
# Test: Antiproliferative activity against human MDA-MB-468 cells overexpressing wild type EGFR assessed as cell growth inhibition incubated for 72 hrs by Celltiter-Glo assay
# Format: functional, cell-based
# Conditions: MDA-MB-468, 72 h
row,IC50 [nM],Compound
1,406,CCOc1cc2ncc(C#N)c(Nc3ccc(OCc4ccccn4)c(Cl)c3)c2cc1NC(=O)/C=C/CN(C)C [NERATINIB]
2,659,CCOc1cc2ncc(C#N)c(Nc3ccc(OCc4ccccn4)c(Cl)c3)c2cc1NC(=O)/C=C/[C@H]1CCCN1C [PYROTINIB]

# System: BaF3
# Test: Antiproliferative activity against mouse BaF3 cells harbouring HER2 […] mutant assessed as inhibition of cell growth incubated for 72 hrs by Celltiter-Glo assay
# Format: functional, cell-based
# Conditions: BaF3, 72 h
row,IC50 [nM],Compound
1,15,CCOc1cc2ncc(C#N)c(Nc3ccc(OCc4ccccn4)c(Cl)c3)c2cc1NC(=O)/C=C/[C@H]1CCCN1C [PYROTINIB]

# Target: T1, Receptor tyrosine-protein kinase erbB-2
# Test: Inhibition of HER2 (unknown origin)
# Conditions: not given
row,IC50 [nM],Compound
1,4.43,CCOc1cc2ncc(C#N)c(Nc3ccc(OCc4ccccn4)c(Cl)c3)c2cc1NC(=O)/C=C/[C@H]1CCCN1C [PYROTINIB]
2,6.9,Cc1cc(Nc2ncnc3ccc(NC4=NC(C)(C)CO4)cc23)ccc1Oc1ccn2ncnc2c1 [TUCATINIB]

# System: MFE-280
# Test: Antiproliferative activity against human MFE-280 cells assessed as cell growth inhibition incubated for 72 hrs by Celltiter-Glo assay
# Format: functional, cell-based
# Conditions: MFE-280, 72 h
row,Compound,IC50 [nM]
1,CCOc1cc2ncc(C#N)c(Nc3ccc(OCc4ccccn4)c(Cl)c3)c2cc1NC(=O)/C=C/CN(C)C [NERATINIB],1290
2,CCOc1cc2ncc(C#N)c(Nc3ccc(OCc4ccccn4)c(Cl)c3)c2cc1NC(=O)/C=C/[C@H]1CCCN1C [PYROTINIB],1560

# Target: Receptor tyrosine-protein kinase erbB-2 (Homo sapiens, UniProt P04626, D769H)
# Test: Inhibition of HER2 D769H mutant (unknown origin) incubated for 120 mins in presence of 33P-ATP by P81 ion exchange cellulose chromatography
# Conditions: not given
# Sequence of Receptor tyrosine-protein kinase erbB-2 (Homo sapiens, UniProt P04626, D769H) (P04626 23-1255 D769H limits assumed): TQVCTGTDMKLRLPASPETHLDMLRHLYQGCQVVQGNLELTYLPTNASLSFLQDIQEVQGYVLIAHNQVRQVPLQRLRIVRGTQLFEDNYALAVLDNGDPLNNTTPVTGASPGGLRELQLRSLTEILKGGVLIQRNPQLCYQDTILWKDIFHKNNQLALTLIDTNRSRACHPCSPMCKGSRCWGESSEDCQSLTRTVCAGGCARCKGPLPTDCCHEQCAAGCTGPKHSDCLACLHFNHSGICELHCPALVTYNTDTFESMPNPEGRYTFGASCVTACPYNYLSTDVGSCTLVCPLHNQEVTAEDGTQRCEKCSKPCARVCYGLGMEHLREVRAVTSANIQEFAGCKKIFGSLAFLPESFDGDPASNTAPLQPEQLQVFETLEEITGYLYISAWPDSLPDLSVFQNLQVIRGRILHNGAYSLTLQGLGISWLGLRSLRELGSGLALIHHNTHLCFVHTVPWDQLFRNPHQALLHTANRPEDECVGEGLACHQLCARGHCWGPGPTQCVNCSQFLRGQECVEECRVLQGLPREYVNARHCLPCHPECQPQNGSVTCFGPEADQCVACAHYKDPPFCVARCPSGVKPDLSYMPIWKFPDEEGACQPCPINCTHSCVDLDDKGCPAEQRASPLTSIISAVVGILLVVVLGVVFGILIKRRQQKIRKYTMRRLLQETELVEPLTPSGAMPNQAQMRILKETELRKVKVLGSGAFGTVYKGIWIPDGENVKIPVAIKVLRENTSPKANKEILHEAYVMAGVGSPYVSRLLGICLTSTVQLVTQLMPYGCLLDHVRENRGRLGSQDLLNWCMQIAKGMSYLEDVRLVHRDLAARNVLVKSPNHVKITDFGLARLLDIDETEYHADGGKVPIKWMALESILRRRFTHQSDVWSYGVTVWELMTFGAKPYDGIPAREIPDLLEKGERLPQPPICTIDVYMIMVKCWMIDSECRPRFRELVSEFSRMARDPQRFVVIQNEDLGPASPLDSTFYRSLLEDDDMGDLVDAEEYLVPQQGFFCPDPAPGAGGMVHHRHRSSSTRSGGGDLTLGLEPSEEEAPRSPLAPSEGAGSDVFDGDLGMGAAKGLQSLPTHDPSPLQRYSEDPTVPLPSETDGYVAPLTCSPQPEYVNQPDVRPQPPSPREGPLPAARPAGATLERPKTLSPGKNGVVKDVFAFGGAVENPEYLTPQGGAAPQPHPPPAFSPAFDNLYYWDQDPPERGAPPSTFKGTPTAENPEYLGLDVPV
row,IC50 [nM],Compound
1,6.65,CCOc1cc2ncc(C#N)c(Nc3ccc(OCc4ccccn4)c(Cl)c3)c2cc1NC(=O)/C=C/[C@H]1CCCN1C [PYROTINIB]
